As usually defined, the residual activity is the signal under treatment as a percentage of the control signal.

These results are taken from ChEMBL document CHEMBL1152560, “Substituted 2-arylbenzothiazoles as kinase inhibitors: hit-to-lead optimization” (Bioorg Med Chem, 2009).

Experiment [1] concerns the target CDK6/cyclin D1 (Homo sapiens) (UniProt P24385+Q00534). Kind of experiment: Residual activity of CDK6/Cyclin D1 at 1 uM by microplate scintillation counting. It is filed as protein-complex assay.
The target of experiment [2] is T1, Serine/threonine-protein kinase Chk1 (Homo sapiens) (UniProt O14757).
T1 sequence (whole entry): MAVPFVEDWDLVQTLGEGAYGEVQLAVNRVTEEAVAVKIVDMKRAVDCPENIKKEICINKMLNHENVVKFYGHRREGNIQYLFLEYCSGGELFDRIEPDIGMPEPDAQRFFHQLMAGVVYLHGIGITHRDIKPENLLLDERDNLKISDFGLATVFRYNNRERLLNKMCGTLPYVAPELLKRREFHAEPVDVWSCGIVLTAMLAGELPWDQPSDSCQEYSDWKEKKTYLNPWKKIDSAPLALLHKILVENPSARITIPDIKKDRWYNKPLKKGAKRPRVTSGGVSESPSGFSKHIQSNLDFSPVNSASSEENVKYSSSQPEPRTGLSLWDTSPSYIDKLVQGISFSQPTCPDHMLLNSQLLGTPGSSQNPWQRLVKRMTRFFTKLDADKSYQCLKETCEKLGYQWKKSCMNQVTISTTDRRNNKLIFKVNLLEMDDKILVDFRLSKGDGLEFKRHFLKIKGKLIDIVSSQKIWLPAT
Kind of experiment: Residual activity of CHK1 at 1 uM by microplate scintillation counting.

Experiment [3] addresses T2, Ephrin type-B receptor 2 (Homo sapiens) (UniProt P29323).
T2 sequence (whole entry): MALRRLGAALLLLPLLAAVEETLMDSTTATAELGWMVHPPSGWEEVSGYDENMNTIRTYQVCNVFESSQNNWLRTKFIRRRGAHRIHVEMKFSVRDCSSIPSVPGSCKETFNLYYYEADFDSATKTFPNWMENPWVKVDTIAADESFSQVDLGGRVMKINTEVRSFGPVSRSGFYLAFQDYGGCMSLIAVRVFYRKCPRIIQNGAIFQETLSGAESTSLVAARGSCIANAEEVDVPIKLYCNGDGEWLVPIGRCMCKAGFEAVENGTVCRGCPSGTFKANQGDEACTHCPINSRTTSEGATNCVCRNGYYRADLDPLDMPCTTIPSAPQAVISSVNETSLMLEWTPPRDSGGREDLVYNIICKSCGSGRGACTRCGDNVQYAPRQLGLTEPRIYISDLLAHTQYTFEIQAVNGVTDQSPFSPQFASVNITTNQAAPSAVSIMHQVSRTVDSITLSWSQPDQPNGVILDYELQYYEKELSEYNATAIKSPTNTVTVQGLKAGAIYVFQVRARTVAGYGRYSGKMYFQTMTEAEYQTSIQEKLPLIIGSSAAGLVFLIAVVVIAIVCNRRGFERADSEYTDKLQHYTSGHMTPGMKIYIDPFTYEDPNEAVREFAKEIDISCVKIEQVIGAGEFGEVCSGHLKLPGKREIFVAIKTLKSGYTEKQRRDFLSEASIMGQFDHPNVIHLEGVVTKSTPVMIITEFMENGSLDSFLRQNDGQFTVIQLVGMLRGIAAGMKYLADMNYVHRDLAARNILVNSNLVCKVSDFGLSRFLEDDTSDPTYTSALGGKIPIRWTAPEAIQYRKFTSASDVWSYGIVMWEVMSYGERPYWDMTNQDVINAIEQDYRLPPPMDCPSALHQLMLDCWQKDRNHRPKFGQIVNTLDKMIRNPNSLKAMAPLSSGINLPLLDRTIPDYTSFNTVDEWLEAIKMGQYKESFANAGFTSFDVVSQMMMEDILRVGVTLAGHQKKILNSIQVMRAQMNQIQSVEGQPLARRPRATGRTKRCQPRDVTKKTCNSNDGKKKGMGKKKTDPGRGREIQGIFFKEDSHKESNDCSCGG
Kind of experiment: Residual activity of EPHB2 at 1 uM by microplate scintillation counting.

Experiment [4] addresses G protein-coupled receptor kinase 4 (Homo sapiens) (UniProt P32298). Kind of experiment: Residual activity of GRK4 at 1 uM by microplate scintillation counting.
In experiment [5] the target is Fibroblast growth factor receptor 3 (Homo sapiens) (UniProt P22607). Kind of experiment: Residual activity of FGFR3 at 0.1 uM by microplate scintillation counting.
In experiment [6] the target is T3, Megakaryocyte-associated tyrosine-protein kinase (Homo sapiens) (UniProt P42679).
T3 sequence (whole entry): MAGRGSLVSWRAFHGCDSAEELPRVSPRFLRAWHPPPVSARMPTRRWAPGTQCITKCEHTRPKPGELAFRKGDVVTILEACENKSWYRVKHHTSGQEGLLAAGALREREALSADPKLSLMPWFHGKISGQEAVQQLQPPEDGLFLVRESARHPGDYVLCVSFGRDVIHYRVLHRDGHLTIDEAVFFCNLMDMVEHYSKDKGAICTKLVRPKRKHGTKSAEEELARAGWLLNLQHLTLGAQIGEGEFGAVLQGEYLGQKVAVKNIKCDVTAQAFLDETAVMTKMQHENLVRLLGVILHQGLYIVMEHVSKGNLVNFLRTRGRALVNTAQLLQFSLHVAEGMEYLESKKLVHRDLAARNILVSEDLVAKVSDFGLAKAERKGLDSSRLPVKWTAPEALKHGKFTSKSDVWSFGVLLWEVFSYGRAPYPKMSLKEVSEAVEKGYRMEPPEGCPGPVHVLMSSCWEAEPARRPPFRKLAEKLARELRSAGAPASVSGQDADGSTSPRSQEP
Kind of experiment: Residual activity of MATK at 0.1 uM by microplate scintillation counting.

Experiment [7] has as its target Homeodomain-interacting protein kinase 3 (Homo sapiens) (UniProt Q9H422). Kind of experiment: Residual activity of HIPK3 at 10 uM by microplate scintillation counting.
For experiment [8], the target named is Ephrin type-A receptor 5 (Homo sapiens) (UniProt P54756). Description: Residual activity of EPHA5 at 0.1 uM by microplate scintillation counting.
The target in experiment [9] is Maternal embryonic leucine zipper kinase (Homo sapiens) (UniProt Q14680). Kind of experiment: Residual activity of MELK at 10 uM by microplate scintillation counting.
Experiment [10] concerns the target Protein kinase C eta type (Homo sapiens) (UniProt P24723). Kind of experiment: Residual activity of PKCeta at 0.1 uM by microplate scintillation counting.
Experiment [11] addresses T4, Testis-specific serine/threonine-protein kinase 2 (Homo sapiens) (UniProt Q96PF2).
T4 sequence (whole entry): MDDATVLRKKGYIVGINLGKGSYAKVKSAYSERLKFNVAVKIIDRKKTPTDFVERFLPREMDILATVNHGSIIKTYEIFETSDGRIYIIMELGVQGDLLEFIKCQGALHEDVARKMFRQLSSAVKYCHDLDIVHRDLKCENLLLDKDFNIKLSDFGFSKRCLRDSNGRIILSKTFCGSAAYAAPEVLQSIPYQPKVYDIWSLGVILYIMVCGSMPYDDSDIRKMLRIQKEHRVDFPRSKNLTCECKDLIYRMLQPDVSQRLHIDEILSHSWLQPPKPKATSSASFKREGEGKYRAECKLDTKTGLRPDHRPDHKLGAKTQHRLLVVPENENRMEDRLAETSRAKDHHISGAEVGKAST
Description: Residual activity of TSK2 at 10 uM by microplate scintillation counting.

Chain of Fibroblast growth factor receptor 3 (Homo sapiens) (P22607 23-806 limits assumed): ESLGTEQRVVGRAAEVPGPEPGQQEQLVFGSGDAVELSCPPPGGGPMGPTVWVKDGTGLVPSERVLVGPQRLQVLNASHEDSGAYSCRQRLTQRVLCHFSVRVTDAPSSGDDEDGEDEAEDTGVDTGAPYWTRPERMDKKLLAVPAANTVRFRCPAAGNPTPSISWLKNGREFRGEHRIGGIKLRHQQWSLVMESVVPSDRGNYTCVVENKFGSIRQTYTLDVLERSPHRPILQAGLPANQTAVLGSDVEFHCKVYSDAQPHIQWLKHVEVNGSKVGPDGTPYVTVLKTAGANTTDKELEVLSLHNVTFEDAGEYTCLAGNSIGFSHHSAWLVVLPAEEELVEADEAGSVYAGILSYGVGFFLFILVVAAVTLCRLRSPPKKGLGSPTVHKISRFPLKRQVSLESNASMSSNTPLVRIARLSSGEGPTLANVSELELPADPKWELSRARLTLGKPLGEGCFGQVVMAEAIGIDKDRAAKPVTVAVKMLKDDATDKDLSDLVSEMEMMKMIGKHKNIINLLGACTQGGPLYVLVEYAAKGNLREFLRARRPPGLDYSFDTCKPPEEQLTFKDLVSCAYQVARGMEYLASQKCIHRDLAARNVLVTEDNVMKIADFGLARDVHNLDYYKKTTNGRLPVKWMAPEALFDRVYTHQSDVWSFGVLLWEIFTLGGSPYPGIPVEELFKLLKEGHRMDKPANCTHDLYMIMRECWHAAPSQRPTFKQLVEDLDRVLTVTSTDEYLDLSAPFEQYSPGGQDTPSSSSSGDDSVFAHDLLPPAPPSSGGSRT
Chain of G protein-coupled receptor kinase 4 (Homo sapiens) (P32298 whole entry, looked up): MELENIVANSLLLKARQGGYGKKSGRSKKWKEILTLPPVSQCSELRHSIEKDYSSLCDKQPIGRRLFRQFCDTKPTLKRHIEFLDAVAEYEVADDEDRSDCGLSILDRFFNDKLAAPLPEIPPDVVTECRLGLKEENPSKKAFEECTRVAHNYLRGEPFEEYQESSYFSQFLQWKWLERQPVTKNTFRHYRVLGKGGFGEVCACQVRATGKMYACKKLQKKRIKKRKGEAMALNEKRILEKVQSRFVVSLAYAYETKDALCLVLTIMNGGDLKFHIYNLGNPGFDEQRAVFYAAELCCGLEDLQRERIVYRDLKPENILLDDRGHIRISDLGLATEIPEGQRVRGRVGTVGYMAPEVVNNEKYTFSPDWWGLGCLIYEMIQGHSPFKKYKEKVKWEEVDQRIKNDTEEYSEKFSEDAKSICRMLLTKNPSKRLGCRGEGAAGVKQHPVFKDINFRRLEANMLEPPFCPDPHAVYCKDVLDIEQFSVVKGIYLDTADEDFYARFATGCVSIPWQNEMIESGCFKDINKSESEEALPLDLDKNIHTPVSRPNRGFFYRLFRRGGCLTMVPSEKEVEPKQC
Chain of Homeodomain-interacting protein kinase 3 (Homo sapiens) (Q9H422 whole entry, looked up): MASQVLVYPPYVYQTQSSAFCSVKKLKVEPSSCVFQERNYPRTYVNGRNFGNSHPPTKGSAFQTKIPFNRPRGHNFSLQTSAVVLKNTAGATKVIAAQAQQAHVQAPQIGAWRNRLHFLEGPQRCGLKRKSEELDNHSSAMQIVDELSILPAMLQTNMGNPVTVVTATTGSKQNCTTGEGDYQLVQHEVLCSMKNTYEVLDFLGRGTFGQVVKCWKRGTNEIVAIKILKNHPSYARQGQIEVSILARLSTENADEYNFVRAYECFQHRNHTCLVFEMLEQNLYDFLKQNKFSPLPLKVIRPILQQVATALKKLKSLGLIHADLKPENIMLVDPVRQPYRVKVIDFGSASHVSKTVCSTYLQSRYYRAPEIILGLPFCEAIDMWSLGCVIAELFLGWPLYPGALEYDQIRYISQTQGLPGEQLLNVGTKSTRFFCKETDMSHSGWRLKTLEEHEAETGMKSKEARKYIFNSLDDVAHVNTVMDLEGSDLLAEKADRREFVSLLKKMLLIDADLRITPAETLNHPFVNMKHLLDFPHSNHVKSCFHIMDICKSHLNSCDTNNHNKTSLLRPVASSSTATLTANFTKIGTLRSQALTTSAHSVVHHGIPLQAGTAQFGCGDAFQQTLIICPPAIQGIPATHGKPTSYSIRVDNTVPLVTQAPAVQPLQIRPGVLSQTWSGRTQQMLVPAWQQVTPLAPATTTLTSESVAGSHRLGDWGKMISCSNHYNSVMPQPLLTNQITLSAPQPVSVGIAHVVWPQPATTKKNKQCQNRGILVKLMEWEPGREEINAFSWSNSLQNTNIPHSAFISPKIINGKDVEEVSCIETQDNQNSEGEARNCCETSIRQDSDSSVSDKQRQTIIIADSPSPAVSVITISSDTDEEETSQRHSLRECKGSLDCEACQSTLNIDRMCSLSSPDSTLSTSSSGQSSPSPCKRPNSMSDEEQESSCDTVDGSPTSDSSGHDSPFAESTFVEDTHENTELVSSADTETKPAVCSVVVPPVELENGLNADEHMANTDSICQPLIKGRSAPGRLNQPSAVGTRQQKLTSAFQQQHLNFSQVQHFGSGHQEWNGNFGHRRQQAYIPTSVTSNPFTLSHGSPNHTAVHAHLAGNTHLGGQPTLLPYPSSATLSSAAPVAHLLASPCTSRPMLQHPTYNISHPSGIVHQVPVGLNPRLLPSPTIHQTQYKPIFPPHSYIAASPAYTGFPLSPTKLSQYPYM
Chain of Protein kinase C eta type (Homo sapiens) (P24723 whole entry): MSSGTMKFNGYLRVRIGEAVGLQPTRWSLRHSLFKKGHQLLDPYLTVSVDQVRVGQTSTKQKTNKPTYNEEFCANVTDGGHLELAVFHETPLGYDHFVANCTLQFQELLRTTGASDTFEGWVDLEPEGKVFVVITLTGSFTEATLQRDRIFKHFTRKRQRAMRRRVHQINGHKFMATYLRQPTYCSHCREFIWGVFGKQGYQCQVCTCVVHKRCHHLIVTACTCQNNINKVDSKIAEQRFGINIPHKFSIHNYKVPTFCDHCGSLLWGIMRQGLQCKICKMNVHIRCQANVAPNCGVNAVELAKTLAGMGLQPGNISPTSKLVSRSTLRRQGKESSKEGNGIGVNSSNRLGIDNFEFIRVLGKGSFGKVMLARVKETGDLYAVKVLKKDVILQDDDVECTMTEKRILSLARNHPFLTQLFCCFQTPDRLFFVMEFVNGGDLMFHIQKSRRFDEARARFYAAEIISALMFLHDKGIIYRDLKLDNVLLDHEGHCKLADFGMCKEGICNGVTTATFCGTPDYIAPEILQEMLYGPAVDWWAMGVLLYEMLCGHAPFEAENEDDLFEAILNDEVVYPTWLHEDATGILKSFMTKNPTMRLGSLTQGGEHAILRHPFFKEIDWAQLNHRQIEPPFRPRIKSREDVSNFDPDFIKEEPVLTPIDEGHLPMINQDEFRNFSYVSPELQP
Chain of Ephrin type-A receptor 5 (Homo sapiens) (P54756 whole entry): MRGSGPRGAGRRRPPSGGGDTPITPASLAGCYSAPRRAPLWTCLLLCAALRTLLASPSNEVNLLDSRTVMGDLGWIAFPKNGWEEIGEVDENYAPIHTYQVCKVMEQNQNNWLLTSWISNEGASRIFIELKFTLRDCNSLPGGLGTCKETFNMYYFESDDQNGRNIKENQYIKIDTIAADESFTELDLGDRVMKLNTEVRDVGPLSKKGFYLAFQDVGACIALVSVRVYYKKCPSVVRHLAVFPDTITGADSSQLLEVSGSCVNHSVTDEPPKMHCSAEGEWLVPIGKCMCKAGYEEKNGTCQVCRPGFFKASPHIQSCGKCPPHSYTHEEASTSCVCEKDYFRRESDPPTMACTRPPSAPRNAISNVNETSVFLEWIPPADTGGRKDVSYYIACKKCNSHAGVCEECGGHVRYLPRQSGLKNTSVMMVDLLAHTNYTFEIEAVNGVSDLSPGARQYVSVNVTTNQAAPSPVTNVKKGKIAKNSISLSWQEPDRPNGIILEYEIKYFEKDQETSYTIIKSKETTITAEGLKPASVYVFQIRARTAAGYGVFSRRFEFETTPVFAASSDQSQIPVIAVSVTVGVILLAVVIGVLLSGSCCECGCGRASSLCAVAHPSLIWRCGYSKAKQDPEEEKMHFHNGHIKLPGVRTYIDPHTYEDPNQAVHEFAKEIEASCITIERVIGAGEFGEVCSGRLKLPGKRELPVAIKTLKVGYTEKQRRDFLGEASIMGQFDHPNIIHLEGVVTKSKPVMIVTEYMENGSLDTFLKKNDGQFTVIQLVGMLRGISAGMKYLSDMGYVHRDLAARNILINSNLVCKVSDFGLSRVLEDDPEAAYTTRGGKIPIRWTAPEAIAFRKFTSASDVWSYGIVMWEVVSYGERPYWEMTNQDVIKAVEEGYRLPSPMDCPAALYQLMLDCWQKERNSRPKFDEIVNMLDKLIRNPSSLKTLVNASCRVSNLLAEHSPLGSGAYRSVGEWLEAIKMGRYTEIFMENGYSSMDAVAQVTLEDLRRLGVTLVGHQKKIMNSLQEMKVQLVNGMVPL
Chain of Maternal embryonic leucine zipper kinase (Homo sapiens) (Q14680 whole entry, looked up): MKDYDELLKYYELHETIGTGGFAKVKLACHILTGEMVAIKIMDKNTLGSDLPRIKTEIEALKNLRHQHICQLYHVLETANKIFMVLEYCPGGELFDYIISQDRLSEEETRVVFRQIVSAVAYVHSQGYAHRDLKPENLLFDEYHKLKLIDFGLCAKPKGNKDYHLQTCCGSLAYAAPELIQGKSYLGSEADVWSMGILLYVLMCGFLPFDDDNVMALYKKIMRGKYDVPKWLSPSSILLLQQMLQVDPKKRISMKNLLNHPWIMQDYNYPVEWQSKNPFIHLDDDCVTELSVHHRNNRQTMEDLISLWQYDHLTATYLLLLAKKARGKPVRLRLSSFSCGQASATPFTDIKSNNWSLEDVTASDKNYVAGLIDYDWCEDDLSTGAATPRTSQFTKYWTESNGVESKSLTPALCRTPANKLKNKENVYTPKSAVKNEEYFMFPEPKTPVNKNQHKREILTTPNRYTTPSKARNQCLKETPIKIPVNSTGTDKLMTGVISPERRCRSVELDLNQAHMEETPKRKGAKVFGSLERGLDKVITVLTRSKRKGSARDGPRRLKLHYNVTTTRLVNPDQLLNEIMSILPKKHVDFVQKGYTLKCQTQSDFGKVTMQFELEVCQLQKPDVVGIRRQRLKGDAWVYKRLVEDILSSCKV

As for `COc1cc2c(Oc3ccc(-c4nc5ccccc5s4)cc3)ncnc2cc1OCCCN1CCN(C)CC1`, the residual activity in experiment [1] amounted to 109%; in experiment [2] it was 103%; in experiment [3] it was 86%; in [4], 94%; in [5], 95%; in experiment [6] it was 107%. Besides, the residual activity in experiment [7] turned out to be 132%; in [8] it was 81%; in experiment [9], 98%; in [10] it was 97%; in experiment [11], 109%.
Take `COc1cc2c(Oc3ccc(-c4nc5ccccc5s4)cc3)ncnc2cc1OCCCN1CCCC1`: the residual activity in experiment [1] was 104%; in [2], 83%; in experiment [3], 98%; in experiment [4], 97%; in [5], 104%; in experiment [6] it was 109%. In addition, the residual activity in [7] amounted to 147%; in [8], 103%; in [9] it was 85%; in experiment [10], 117%; in experiment [11], 110%.
For the molecule `COc1cc2c(Oc3ccc(-c4nc5ccccc5s4)cc3F)ncnc2cc1OCCCN1CCN(C)CC1`, the residual activity in [1] was 100%; in [2], 102%; in [3], 72%; in experiment [4], 106%; in experiment [5], 100%; in experiment [6], 96%. Further, the residual activity in experiment [7] was 142%; in [8] it was 97%; in [9], 77%; in experiment [10], 104%; in [11] it was 111%.
